Laboratory results from paper PMC7006505, “Chemical biology tools for probing transcytosis at the blood–brain barrier” (Chemical Science, 2019).
Bridge positions count the residues as written; N and C are the ends. Square brackets hold non-standard residues; d marks the D form. Triazole bridges read from a SMILES are 1,4-linked. Ends that are not written are not given here. I, II: the chains in the order shown. * marks the point of attachment. 5FAM = O=C1OC2(c3ccc(O)cc3Oc3cc(O)ccc32)c2ccc(C(=O)*)cc21; Lys(N3) = [N-]=[N+]=NCCCC[C@H](N)C(=O)O; Pra = C#CC[C@H](N)C(=O)O

Tests used:
[1] = target: T1, extracellular subunit of TfR recombinant human protein, N-His Tag (Homo sapiens, UniProt P02786); experiment: TfR binding ELISA (FAM-labelled shuttles on TfR-coated plates); settings: plates coated with 1 µg/ml TfR, 1 h at room temp in PBS, anti-FAM HRP antibody (streptavidin peroxidase for Tf-biotin), absorption 450 nm, read-out: apparent binding affinity (EC50) to TfR
T1 construct: extracellular subunit of TfR; purchased Life Technologies
T1 sequence (P02786 89-760 limits assumed): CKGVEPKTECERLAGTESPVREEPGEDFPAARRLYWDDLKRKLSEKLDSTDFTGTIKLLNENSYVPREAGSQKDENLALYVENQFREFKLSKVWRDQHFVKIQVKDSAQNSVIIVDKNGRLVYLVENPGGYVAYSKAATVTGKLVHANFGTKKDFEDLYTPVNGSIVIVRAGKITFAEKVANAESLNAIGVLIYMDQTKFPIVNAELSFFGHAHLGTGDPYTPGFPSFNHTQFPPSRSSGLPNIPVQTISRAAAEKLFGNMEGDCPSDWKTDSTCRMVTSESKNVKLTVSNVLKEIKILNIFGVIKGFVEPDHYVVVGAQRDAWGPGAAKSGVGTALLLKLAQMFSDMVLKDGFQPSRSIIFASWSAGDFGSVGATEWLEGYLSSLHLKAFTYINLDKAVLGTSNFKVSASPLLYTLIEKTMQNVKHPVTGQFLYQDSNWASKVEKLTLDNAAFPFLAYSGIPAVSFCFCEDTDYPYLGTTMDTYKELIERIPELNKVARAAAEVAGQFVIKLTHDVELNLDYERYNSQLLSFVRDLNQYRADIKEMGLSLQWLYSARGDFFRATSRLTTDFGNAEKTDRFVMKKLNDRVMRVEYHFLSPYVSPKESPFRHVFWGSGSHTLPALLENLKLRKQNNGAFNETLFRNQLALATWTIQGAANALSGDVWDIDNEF
Experimental: To evaluate functionality of the conjugated peptides, in vitro analyses were performed. TfR binding was assessed through an ELISA format, whereby FAM-conjugated shuttles were serially diluted and added to plates that were coated with TfR protein. FAM-labelled vehicles were detected by an anti-FAM HRP-conjugated antibody.
The procedure was performed at room temp on a shaking platform using PBS-Tween (0.05%) for the wash steps. Nickel coated clear 96-well plates (Pierce) was coated overnight with 1 µg/ml of the extracellular subunit of TfR recombinant human protein, N-His Tag (Life Technologies) in 0.5 M Carbonate buffer. The plates were washed (5 × 150 µL) and blocked for 1 h with PBS containing 1% BSA. 100 µL of the compound dilutions in PBS were transferred to the plate and incubated for 1 h at room temp, after which time the plates were washed (5 × 150 µL). A Goat anti-FAM peroxidase labelled antibody (Abcam, 1:100 000) was added to the wells and incubated for 30 min. Following 6 washes, 50 µL of TMB Substrate Solution (Sigma) was added per well and incubated for a further 30 min. After addition of 50 µL of 2 M sulphuric acid to each well , receptor complexes were detected by measuring absorption at 450 nm. The procedure for determining the binding affinity of biotin labelled Tf (Sigma) was similar except streptavidin peroxidas e (ThermoFisher Scientific) (1:20 000) was used to measure the Tf -receptor complex.
Imaging and Immunochemistry
Colocalis ation of delivery scaffolds with LAMP1 and Tf -A647 bEND.3 cells were seeded at a density of 1 x 10^4 cells/we ll in 8-well glass plates (ibidi ) coated with rat tail collagen. After 3 days at 100 % confluence, cells were washed with PBS (3 × 180 µL), and co-incubated with brain delivery scaffolds (5 µM) and Tf-A647 (50 µg/ml) at 37 °C for 2 h in FluoroBrite DMEM media (Thermofisher). Cells were washed with PBS (3 × 180 µL), then fixed with 4 % paraformaldehyde for 15 min at room temperature. […]

TfR = settings: micromolar affinity; read-out: affinity towards the receptor (TfR); cited from earlier work
Description: To enable targeted brain delivery, we chose to functionalise our scaffold with established ligands that engage the transferrin receptor (TfR) and low-density lipoprotein-receptor related protein (LRP1). The relative abundance of these receptors on brain endothelial, alongside their high transport capacity, made them ideal targets for RMT mediated delivery and both have been actively explored in research.[8],[14]–[16]

bEnd.3/MSC co-culture = experiment: Transcytosis assay, transwell in vitro BBB model with dex-TexR correction (cPapp); format: in vitro ADME, mouse; settings: apical to basolateral, fluorescence read-out; for fold increase in permeability (cPapp) relative to Tf-A647: bEnd.3/MSC co-culture on polyester transwell inserts (0.4 µm pore), 0.5 µM vehicle with 5 µM dex-TexR (3000 Da), 37 °C, DMEM without FCS after 1 h serum starvation, three inserts with and without culture, paracellular contribution subtracted; for cPapp at 4 °C: bEnd.3/MSC transwell, FAM-labelled vehicle co-incubated with dex-TexR, corrected for paracellular diffusion
Description: To study transcytosis potential of the vehicles in vitro we optimised a BBB model using a 3D-transwell format. […] This is similar to results shown by others.[16] Immunostaining for TJ protein ZO-1 in the bEnd.3 cell line confirmed its presence and trafficking towards the cell junctions (Fig. S7 ^†).
It seemed plausible that a similar sized marker (such as TexasRed labelled dextran (dex-TexR; 3000 g mol^–1)) that is incapable of AMT or RMT uptake could serve as an internal standard to quantify paracellular contribution of the vehicles. As exemplified in Fig. 4A, experiments are performed in parallel with probes (both dex-TexR and FAM-PPII vehicle or Tf-A647) fed to insets containing either the cell monolayer (PSt) or filter alone (PSf). The corresponding Papp for dex-TexR in both scenarios is first calculated and the extent in which movement is reduced by presence of the monolayer (defined here as the transport ratio (TR)) is used to determine the expected paracellular diffusion rate of the individual vehicles. We employed Tf-A647 and a similarly sized TexasRed labelled dextran (dex-TexR; 70 000 g mol^–1) as a positive control for transcytosis. […] When incubated in the presence of cells, dex-TexR was detected in the basolateral compartment indicating background paracellular flux. However, Tf-A647 was cleared at a faster rate in comparison, confirming transcytosis of the molecule.
Fig. 4 Modified workflow and results for determining the cPapp of a macromolecule, accounting for contributions made by paracellular diffusion across an in vitro barrier. […] (B–C) Clearance plots obtained by incubation of Tf-A647 or dex-TexR with filters alone (B; PSf) or with cells (C; PSt). […] Division of PSt/PSf for dextran generates the transport ratio (TR). Expected paracellular contribution of the vehicle is obtained by multiplying TR by the Papp of the compound of interest without cells. cPapp values are obtained by subtracting this value from Papp of compound with cells. Key: red = dex-TexR; blue = Tf-A647; dashed lines = filter insert only; solid lines = transwell culture (D) cPapp values for delivery vehicles screened in the transcytosis assay.
(3 × 1 mL), and trypsinisation was conducted using a solution of 0.25 % (w/v) trypsin-EDTA solution (0.5 mL, 3 min, 37 °C, 5 % CO2 incubation), unless otherwise specified. When required, a Scan Speed 1580R centrifuge (Labmode) was used to pellet cell suspensions. All tissue culture work was performed in sterilised Corning well plates, and cell based assays used DMEM media (ThermoFisher, #31053028) without FCS and phenol red, unless otherwise specified. bEND.3 cells were a gift from Rachael Brown (Kings College London), while MSC cells were a gift from the Battaglia group (University College London).
Cells were maintained in high glucose Dulbecco’s Modified Eagle’s Medium (DMEM) (ATCC #30-2002) supplemented with 10 % FCS. Cells were sub-cultured routinely using trypsin solution once 100 % confluence was achieved. For uptake and transcytosis studies, cells under passage number 30 were used. After this time, these cells may begin to lose their barr ier functionality, as identified from an extensive study performed by Brown et al.1 Mesenchymal stem cells (MSC)
MSC, as surrogates for pericytes, were maintained in DMEM/F12 medium containing GlutaMAX and L-glutamine (2 mM) (ThermoFisher, #10565-018), supplemented with 10 % FCS and 5 μg/mL Gentamicin (SIGMA, G1397). Cultures were sub -cultured routinely using trypsin solution once 70 -80 % confluence was achieved.
For all transcytosis assays, polyester filter inserts (Corning, #3460; 0.4 µm pore, 12 mm diameter, 10 µm thick) were used in 12-well cell culture plates. Optimum media volumes were calculated to be 950 µL and 475 µL for apical and basolateral chambers respectively. Both chambers were coated with rat tail collagen (5 µg/cm2) for 2 h at room temperature prior to use. bEND.3 cells were seeded at a density of 2 × 10^4 cells/well onto insets, and grown to […]

## CC[C@H](C)[C@H](NC(=O)[C@H](C)NC(=O)[C@H](Cc1c[nH]cn1)NC(=O)[C@@H](N)CCCCn1cc(C[C@H](NC(=O)[C@H](CCCNC(=N)N)NC(=O)[C@@H](NC(=O)[C@@H]2CCCN2C(=O)[C@@H]2CCCN2C(=O)[C@@H]2CCCN2C(=O)[C@H](CC(C)C)NC(=O)[C@H](CCCNC(=N)N)NC(=O)[C@@H](NC(=O)[C@@H]2CCCN2C(=O)[C@@H]2CCCN2C(=O)[C@@H]2CCCN2C(=O)[C@H](Cc2cn(CCCC[C@H](N)C(=O)N[C@@H](Cc3c[nH]cn3)C(=O)N[C@@H](C)C(=O)N[C@H](C(=O)N[C@@H](Cc3ccc(O)cc3)C(=O)N3CCC[C@H]3C(=O)N[C@@H](CCCNC(=N)N)C(=O)N[C@@H](Cc3c[nH]cn3)C(N)=O)[C@@H](C)CC)nn2)NC(=O)[C@H](CCCNC(=N)N)NC(=O)[C@@H](NC(=O)c2ccc3c(c2)C(=O)OC32c3ccc(O)cc3Oc3cc(O)ccc32)C(C)C)C(C)C)C(C)C)C(=O)N2CCC[C@H]2C(=O)N2CCC[C@H]2C(=O)N2CCC[C@H]2C(N)=O)nn1)C(=O)N[C@@H](Cc1ccc(O)cc1)C(=O)N1CCC[C@H]1C(=O)N[C@@H](CCCNC(=N)N)C(=O)N[C@@H](Cc1c[nH]cn1)C(N)=O [PPII(L3X;L15X)TfRL2]
[1]
  EC50: 11.8 ± 1.11 nM

## HAIYPRH [TfRL2]
TfR
  Kd: 440 µM

## I: 5FAM-VR[Pra]PPPVRLPPPVR[Pra]PPP-NH2 / II: [Lys(N3)]THRPPMWSPVWP-NH2 / III: [Lys(N3)]THRPPMWSPVWP-NH2 (triazole I:3-III:1, I:15-II:1) [PPII(L3X;L15X)TfRL1]
bEnd.3/MSC co-culture
  fold increase in permeability (cPapp) relative to Tf-A647: 3.0 fold
  cPapp at 4 °C: -0.079 cm/min x 10^-5

## Tf-biotin: biotin labelled transferrin (Sigma) [reference compound]
[1]
  EC50: 20.9 ± 2.1 nM

## CC[C@H](C)[C@H](NC(=O)[C@H](C)NC(=O)[C@H](Cc1c[nH]cn1)NC(=O)[C@@H](N)CCCCn1cc(C[C@H](NC(=O)[C@@H]2CCCN2C(=O)[C@@H]2CCCN2C(=O)[C@@H]2CCCN2C(=O)[C@H](CC(C)C)NC(=O)[C@H](CCCNC(=N)N)NC(=O)[C@@H](NC(=O)[C@@H]2CCCN2C(=O)[C@@H]2CCCN2C(=O)[C@@H]2CCCN2C(=O)[C@H](Cc2cn(CCCC[C@H](N)C(=O)N[C@@H](Cc3c[nH]cn3)C(=O)N[C@@H](C)C(=O)N[C@H](C(=O)N[C@@H](Cc3ccc(O)cc3)C(=O)N3CCC[C@H]3C(=O)N[C@@H](CCCNC(=N)N)C(=O)N[C@@H](Cc3c[nH]cn3)C(N)=O)[C@@H](C)CC)nn2)NC(=O)[C@H](CCCNC(=N)N)NC(=O)[C@@H](NC(=O)c2ccc3c(c2)C(=O)OC32c3ccc(O)cc3Oc3cc(O)ccc32)C(C)C)C(C)C)C(=O)N[C@@H](CCCNC(=N)N)C(=O)N[C@@H](CC(C)C)C(=O)N2CCC[C@H]2C(=O)N2CCC[C@H]2C(=O)N2CCC[C@H]2C(N)=O)nn1)C(=O)N[C@@H](Cc1ccc(O)cc1)C(=O)N1CCC[C@H]1C(=O)N[C@@H](CCCNC(=N)N)C(=O)N[C@@H](Cc1c[nH]cn1)C(N)=O [PPII(L3X;V13X)TfRL2]
[1]
  EC50: 12.7 ± 1.37 nM

## CC(C)C[C@H](NC(=O)[C@H](CCCNC(=N)N)NC(=O)[C@@H](NC(=O)[C@@H]1CCCN1C(=O)[C@@H]1CCCN1C(=O)[C@@H]1CCCN1C(=O)[C@H](CC(C)C)NC(=O)[C@H](Cc1cn(CCCC[C@H](N)C(=O)N[C@H](C(=O)N[C@@H](Cc2ccccc2)C(=O)N[C@@H](Cc2ccccc2)C(=O)N[C@@H](Cc2ccc(O)cc2)C(=O)NCC(=O)NCC(=O)N[C@@H](CO)C(=O)N[C@@H](CCCNC(=N)N)C(=O)NCC(=O)N[C@@H](CCCCN)C(=O)N[C@@H](CCCNC(=N)N)C(=O)N[C@@H](CC(N)=O)C(=O)N[C@@H](CC(N)=O)C(=O)N[C@@H](Cc2ccccc2)C(=O)N[C@@H](CCCCN)C(=O)N[C@H](C(=O)N[C@@H](CCC(=O)O)C(=O)N[C@@H](CCC(=O)O)C(=O)N[C@@H](Cc2ccc(O)cc2)C(N)=O)[C@@H](C)O)[C@@H](C)O)nn1)NC(=O)[C@@H](NC(=O)[C@@H]1CCCN1C(=O)[C@@H]1CCCN1C(=O)[C@@H]1CCCN1C(=O)[C@H](CC(C)C)NC(=O)[C@H](CCCNC(=N)N)NC(=O)[C@@H](NC(=O)c1ccc2c(c1)C(=O)OC21c2ccc(O)cc2Oc2cc(O)ccc21)C(C)C)C(C)C)C(C)C)C(=O)N1CCC[C@H]1C(=O)N1CCC[C@H]1C(=O)N1CCC[C@H]1C(N)=O [PPII(R8X)APep2]
bEnd.3/MSC co-culture
  fold increase in permeability (cPapp) relative to Tf-A647: 4.9 fold
  cPapp at 4 °C: -0.058 cm/min x 10^-5

## CC[C@H](C)[C@H](NC(=O)[C@H](C)NC(=O)[C@H](Cc1c[nH]cn1)NC(=O)[C@@H](N)CCCCn1cc(C[C@H](NC(=O)[C@@H](NC(=O)[C@@H]2CCCN2C(=O)[C@@H]2CCCN2C(=O)[C@@H]2CCCN2C(=O)[C@H](CC(C)C)NC(=O)[C@H](CCCNC(=N)N)NC(=O)[C@@H](NC(=O)c2ccc3c(c2)C(=O)OC32c3ccc(O)cc3Oc3cc(O)ccc32)C(C)C)C(C)C)C(=O)N[C@@H](CC(C)C)C(=O)N2CCC[C@H]2C(=O)N2CCC[C@H]2C(=O)N2CCC[C@H]2C(=O)N[C@H](C(=O)N[C@@H](CCCNC(=N)N)C(=O)N[C@@H](CC(C)C)C(=O)N2CCC[C@H]2C(=O)N2CCC[C@H]2C(=O)N2CCC[C@H]2C(N)=O)C(C)C)nn1)C(=O)N[C@@H](Cc1ccc(O)cc1)C(=O)N1CCC[C@H]1C(=O)N[C@@H](CCCNC(=N)N)C(=O)N[C@@H](Cc1c[nH]cn1)C(N)=O [PPII(R8X)TfRL2]
bEnd.3/MSC co-culture
  fold increase in permeability (cPapp) relative to Tf-A647: 1.4 fold
  cPapp at 4 °C: -0.085 cm/min x 10^-5
